Literature values as cited in patent publication US20130065255A1, “Biomarker to Measure Drug Efficacy in Enteropathic Disease” (priority 2011, published 2013).

Tests used:
[1] = 20 mg simvastatin dose, healthy volunteers, Park et al
[2] = humans

| Compound | SVA Cmax [1] [ng/mL] | dose excreted unchanged in the urine [2] |
| --- | --- | --- |
| CCC(C)(C)C(=O)O[C@H]1C[C@@H](C)C=C2C=C[C@H](C)[C@H](CC[C@@H](O)C[C@@H](O)CC(=O)O)[C@H]21 [Simvastatin acid, simvastatin acid] | 1.2 ± 1.0 | – |
| Cc1ncc2n1-c1ccc(Cl)cc1C(c1ccccc1F)=NC2 [midazolam] | – | less than 1% |
